Data set [1] relates to MHCC97-H cells. As to the kind of experiment: Assessment of cell survival (MTT). It is filed as cell-based. As to conditions: Homo sapiens, MHCC97H, 48 h. The protocol: (§1) After transfection or treated with potential inhibitor of cyp3a4, HCC cells were treated with a series concentrations of sorafenib, lenvatinib, cabozantinib, regorafenib, anlotinib, or apatinib (10 μmol/L, 3 μmol/L, 1 μmol/L, 0.3 μmol/L, 0.1 μmol/L, 0.03 μmol/L, or 0.01 μmol/L). After 48 h, MTT was performed to measure ell survival, and the IC50 value of each agent was calculated ([36]–[38]).
The *P < 0.05 being statistically significant between groups.

Data set [2] can be described thus: Assessment of sorafenib elimination in cultured HCC cells (LC-MS/MS). It is filed as in vitro ADME. Particulars: human, read-out: t1/2 values (converted). How it is done: (§2) HCC cells were used to examine the rate of elimination of sorafenib ([18], [19], [34], [35]). For cell-based experiments, HCC cells were treated with 1 μmol/L of sorafenib for 12 h. After treatment, the cells were harvested at a series of time-points. For in vivo experimentation, HCC cells were cultured and subcutaneously injected into mice to generate tumors. When tumor volume reached 2000 mm^3, a solution of sorafenib was directly injected into the tumors. After injection, the tumors were excised at a series of time-points. Next, sorafenib was extracted from MHCC97-H cells or tumors using the acetonitrile (ACN). The sustaining amount of sorafenib at each time-point was measured using liquid chromatography–mass spectrometry/mass spectrometry (LC-MS/MS) and the in vitro/in vivo half-life of sorafenib was determined ([18], [19], [34], [35]).
(§3) SPSS 9.0 statistical software (IBM Corporation, Armonk, NY, USA) was used for all statistical analyses. Statistics were calculated using two-way ANOVA with the Bonferroni correction. IC50 values and the half-lie values (t1/2 values) were calculated using Origin software (Origin 6.1; OriginLab Corporation, Northampton, MA, USA). The *P < 0.05 being statistically significant between groups. The heat-map of the qPCR results were obtained according to the methods by Zhou et al. ([41]) and Yin et al. ([42]).

Data set [3] deals with patients with advanced HCC. The class given is in vivo, human. As to conditions: advanced HCC patients receiving sorafenib.
Excerpt: The endogenous mRNA levels of cyp3a4 in HCC clinical specimens were identified using quantitative polymerase chain reaction (qPCR) in accordance with methods described by Wang et al. ([20]) and Ma et al. ([20], [25]). […] The results (the relative expression level [folds of β-Actin]) of PXR or CAR was shown as heat-map.
A further data set can be described thus: in vitro. As to conditions: human. How it is done: as §2, §3
The test system of a further data set is SMMC-7721. As to the kind of experiment: Assessment of cell survival (MTT). It is filed as cell-based. As to conditions: Homo sapiens, SMMC-7721, 48 h. The protocol: as §1, §3
The test system of the next data set is BEL-7402. As to the kind of experiment: Assessment of cell survival (MTT). It is filed as cell-based. Particulars: Homo sapiens, Bel-7402, 48 h. The protocol: as §1, §3
The test system of data set [4] is subcutaneous tumors formed by MHCC97-H cells. The data set is described as follows: in vivo. The protocol:
as §2, §3

Another data set is described as follows: in vivo. Particulars: nude, mouse, in vivo, t1/2 of Sorafenib. How it is done: as §2, §3
The subject of data set [5] is MHCC97-H cells. The data set is described as follows: Nude mouse subcutaneous tumor model. It is filed as in vivo, nude mice. How it is done:
All animal experiments were reviewed approved by the Institutional Animal Care and Use Committee, the Fifth Medical Center, Chinese PLA. All animal experiments were performed in accordance with the UK Animals (Scientific Procedures) Act, 1986 and the associated guidelines. Female nude mice were purchased from the Si-Bei-Fu Corporation, Beijing China. Following transfection, MHCC97-H cells were prepared as a single-cell suspension and subcutaneously injected into nude mice ([39], [40]). The mice orally received sorafenib once every two days. Tumors from the mice were harvested, and the volumes and weights were measured ([39], [40]).

Setting [6] is: control miRNA, read-out: IC50 values of the agents on MHCC97-H cells.
The mark [7] stands for this setting: miR-4277 + CYP3A4^Mut, read-out: IC50 values of the agents on MHCC97-H cells.
[8] abbreviates: miR-4277 + CYP3A4^Mut-1, read-out: IC50 values of the agents on MHCC97-H cells.
Where [9] appears, read: miR-4277 + CYP3A4^Mut-2, read-out: IC50 values of the agents on MHCC97-H cells.
[10] abbreviates: miR-4277, read-out: IC50 values of the agents on MHCC97-H cells.
Setting [11] is: CYP3A4 mRNA expression High (n = 26).
Setting [12] is: CYP3A4 mRNA expression Low (n = 26).

The structures appear in SMILES notation. Like-named read-outs stand apart in the source and are kept apart here.

One may read the IC50 as the concentration needed to halve the response being measured.

For `N#CC1(c2ccc(NC(=O)c3cccnc3NCc3ccncc3)cc2)CCCC1` [Apatinib], the half-inhibitory concentration (IC50) came out at 960 ± 330 nM in the data set on MHCC97-H cells [1] (setting [6]); 980 ± 370 nM in the data set with MHCC97-H cells [1] (setting [7]); 520 ± 270 nM with MHCC97-H cells [1] (setting [8]); 460 ± 300 nM in the data set with MHCC97-H cells [1] (setting [9]); 260 ± 70 nM in the data set on MHCC97-H cells [1] (setting [10]).

Take `COc1cc2c(Oc3ccc4[nH]c(C)cc4c3F)ccnc2cc1OCC1(N)CC1` [Anlotinib]: the 50% inhibitory concentration (IC50) in the data set on MHCC97-H cells [1] (setting [6]) is 750 ± 30 nM; with MHCC97-H cells [1] (setting [7]), 780 ± 550 nM; in the data set with MHCC97-H cells [1] (setting [8]), 300 ± 120 nM; in the data set on MHCC97-H cells [1] (setting [9]), 450 ± 350 nM; in the data set on MHCC97-H cells [1] (setting [10]), 100 ± 10 nM.

Regarding `COc1cc2nccc(Oc3ccc(NC(=O)C4(C(=O)Nc5ccc(F)cc5)CC4)cc3)c2cc1OC` [Cabozantinib], the IC50 with MHCC97-H cells [1] (setting [6]) was 510 ± 190 nM; in the data set on MHCC97-H cells [1] (setting [7]), 560 ± 150 nM; with MHCC97-H cells [1] (setting [8]) it was 250 ± 60 nM; with MHCC97-H cells [1] (setting [9]), 300 ± 210 nM; in the data set with MHCC97-H cells [1] (setting [10]), 100 ± 40 nM.

Take `COc1cc2nccc(Oc3ccc(NC(=O)NC4CC4)c(Cl)c3)c2cc1C(N)=O` [Lenvatinib]: the IC50 with MHCC97-H cells [1] (setting [6]) was found to be 550 ± 200 nM; in the data set on MHCC97-H cells [1] (setting [7]), 600 ± 200 nM; with MHCC97-H cells [1] (setting [8]) it was 410 ± 10 nM; with MHCC97-H cells [1] (setting [9]), 280 ± 110 nM; in the data set with MHCC97-H cells [1] (setting [10]), 120 ± 60 nM.

As for `CNC(=O)c1cc(Oc2ccc(NC(=O)Nc3ccc(Cl)c(C(F)(F)F)c3)c(F)c2)ccn1` [Regorafenib], the IC50 in the data set on MHCC97-H cells [1] (setting [6]) was 670 ± 490 nM; in the data set on MHCC97-H cells [1] (setting [7]), 710 ± 280 nM; in the data set with MHCC97-H cells [1] (setting [8]), 330 ± 320 nM; in the data set with MHCC97-H cells [1] (setting [9]) it was 350 ± 90 nM; in the data set with MHCC97-H cells [1] (setting [10]) it was 220 ± 40 nM.

Consider `CNC(=O)c1cc(Oc2ccc(NC(=O)Nc3ccc(Cl)c(C(F)(F)F)c3)cc2)ccn1` [Sorafenib], for which the half-life at 1 μmol/L in data set [2] (BEL-7402 cells (HCC cell line) with miR-4277 + CYP3A4^Mut, BEL-7402, miR-4277 + CYP3A4^Mut) was 26.4 ± 3.79 h; in data set [2] (BEL-7402 cells (HCC cell line) with miR-4277, BEL-7402, miR-4277), 42.4 ± 3.33 h; in data set [2] (BEL-7402 cells (HCC cell line), BEL-7402, control) it was 28.2 ± 8.67 h; in data set [2] (HepG2 cells (HCC cell line) with miR-4277 + CYP3A4^Mut, HepG2, miR-4277 + CYP3A4^Mut), 25.7 ± 4.47 h; in [2] (HepG2 cells (HCC cell line) with miR-4277, HepG2, miR-4277), 56.4 ± 1.9 h; in data set [2] (HepG2 cells (HCC cell line), HepG2, control), 30.3 ± 3.31 h. The half-life at 1 μmol/L is 27.4 ± 6.93 h in data set [2] (SMMC-7721 cells (HCC cell line) with miR-4277 + CYP3A4^Mut, SMMC-7721, miR-4277 + CYP3A4^Mut); 46.2 ± 2.88 h in data set [2] (SMMC-7721 cells (HCC cell line) with miR-4277, SMMC-7721, miR-4277); 25.7 ± 2.43 h in data set [2] (SMMC-7721 cells (HCC cell line), SMMC-7721, control); 21.6 ± 1.34 h in “in vitro”; 23.6 ± 0.7 h in “in vitro” (MHCC97-H cells (HCC cell line)); 38.5 ± 9.97 h in the data set “in vitro” (MHCC97-H cells (HCC cell line) transfected with miR-4277). In addition, the half-life at 1 μmol/L is 19.9 ± 2.71 h in the data set “in vitro” (MHCC97-H cells (HCC cell line) with miR-4277 + CYP3A4^Mut), 22.1 ± 6.59 h in the data set “in vitro” (MHCC97-H cells (HCC cell line) with miR-4277 + CYP3A4^Mut-1) and 24.7 ± 8.63 h in the data set “in vitro” (MHCC97-H cells (HCC cell line) with miR-4277 + CYP3A4^Mut-2). The figures for the “OS (overall survival)” value in data set [3] (setting [11]) and in [3] (setting [12]) were 8.0 M and 15.0 M, respectively. The “TTP (time to progress)” value in [3] (setting [11]) came out at 9.0 M; in [3] (setting [12]), 11.0 M. The IC50 worked out at 700 ± 90 nM in the data set on MHCC97-H cells [1] (MHCC97-H cells, control miRNA, read-out: IC50 of Sorafenib); 920 ± 200 nM with MHCC97-H cells [1] (MHCC97-H cells, miR-4277 + CYP3A4^Mut, read-out: IC50 of Sorafenib); 220 ± 140 nM with MHCC97-H cells [1] (MHCC97-H cells, miR-4277 + CYP3A4^Mut-1, read-out: IC50 of Sorafenib); 350 ± 50 nM in the data set with MHCC97-H cells [1] (MHCC97-H cells, miR-4277 + CYP3A4^Mut-2, read-out: IC50 of Sorafenib); 150 ± 10 nM in the data set on MHCC97-H cells [1] (MHCC97-H cells, miR-4277, read-out: IC50 of Sorafenib); 680 ± 110 nM with MHCC97-H cells [1] (Solvent control (no CYP3A4 inhibitor), read-out: Sorafenib on MHCC97-H IC50 values). Also, the IC50 was 1950 ± 540 nM with SMMC-7721 (SMMC-7721, control); 730 ± 330 nM in the data set with SMMC-7721 (SMMC-7721, miR-4277); 1920 ± 550 nM in the data set on SMMC-7721 (SMMC-7721, miR-4277 + CYP3A4^Mut); 1790 ± 180 nM in the data set on BEL-7402 (BEL-7402, control); 280 ± 50 nM in the data set on BEL-7402 (BEL-7402, miR-4277); 2880 ± 350 nM in the data set on BEL-7402 (BEL-7402, miR-4277 + CYP3A4^Mut). The “t1/2 of Sorafenib” value in data set [4] (nude, mouse, in vivo) was 72.79 ± 7.52 h; in data set [4] (subcutaneous MHCC97-H tumors, miR-4277 + CYP3A4^Mut-1, sorafenib injected into tumors) it was 52.38 ± 16.19 h; in data set [4] (subcutaneous MHCC97-H tumors, miR-4277 + CYP3A4^Mut, sorafenib injected into tumors), 36.67 ± 12.58 h. In the data set “in vivo”, this compound had a half-life of 45.7 ± 5.31 h. In the data set with MHCC97-H cells [5] (0.5 mg/kg dose of sorafenib, oral, control-transfected cells), the “subcutaneous growth of MHCC97-H cells” value is recorded as “had no effect”. The “subcutaneous growth of HCC cells (tumor volumes, tumor weights)” value in the data set with MHCC97-H cells [5] (oral sorafenib once every two days, indicated doses, nude mice) is listed as “inhibited the subcutaneous growth of HCC cells in a dose-dependent manner”.

Values taken from article PMC8350395, “Hsa-miR-4277 Decelerates the Metabolism or Clearance of Sorafenib in HCC Cells and Enhances the Sensitivity of HCC Cells to Sorafenib by Targeting cyp3a4” (Frontiers in Oncology, 2021).
